In patent publication US9593112B2, “Substituted pyrazolylpyrazole derivative and use of same as herbicide” (KYOYU AGRI CO., LTD., priority 2013, dated 2017):

Tests used:
[1] = tested on: Echinochloa crus-galli; assay: Paddy herbicidal activity test; type: in vivo; conditions: irrigated paddy pot, treated at 3.5 leaf stage of Echinochloa crus-galli, 30 days
Method: (§1) Rice paddy soil was filled into a 1/10000 are pot followed by the addition of suitable amounts of water and chemical fertilizer, kneading, seeding with Echinochloa crus-galli, Monochoria vaginalis and Scirpus juncoides and maintaining in an irrigated state at a water depth of 3 cm.
(§2) Wettable powder of Target Compound (I) shown in Table 1 prepared in compliance with the preparation examples were diluted with a suitable amount of water, rice plants in the 2.0 leaf stage were transplanted during 3.5 leaf stage of Echinochloa crus-galli, and treated by dropping in chemical in the prescribed amount per are using a pipette.
(§3) After treating for 30 days in a glass greenhouse at an average atmospheric temperature of 30° C., the herbicidal efficacy thereof was investigated.
(§4) Evaluation of herbicidal efficacy was carried out by comparing growth inhibition rate (%) with an untreated group, while evaluation of phytotoxicity was carried out by comparing growth inhibition rate (%) with the state of a complete eradication group, and were evaluated at 11 levels indicated below.

[2] = tested on: Monochoria vaginalis; assay: Paddy herbicidal activity test; type: in vivo; conditions: irrigated paddy pot, 30 days
Method: as §1, §2, §3, §4

[3] = tested on: Scirpus juncoides; assay: Paddy herbicidal activity test; type: in vivo; conditions: irrigated paddy pot, 30 days
Method: as §1, §2, §3, §4

[4] = tested on: Rice plants; assay: Paddy herbicidal activity test, phytotoxicity to transplanted rice; type: in vivo; conditions: rice transplanted at 2.0 leaf stage, 30 days
Method: as §1, §2, §3, §4

[5] = tested on: Amaranthus retroflexus; assay: Farming soil treatment test; type: in vivo; conditions: soil surface spray prior to weed growth, 30 days
Method: (§5) Field soil was filled into a 1/6000 are pot followed by seeding with Digitaria ciliaris, Chenopodium album and Amaranthus retroflexus and covering with soil.
(§6) Wettable powder of Target Compound (I) shown in Table 1 prepared in compliance with the preparation examples were diluted with water to the prescribed amount of chemical and uniformly sprayed onto each soil surface layer using 10 liters of sprayed water per are prior to weed growth following seeding.
as §3
(§7) Evaluation of herbicidal efficacy was carried out in the same manner as the above-mentioned Test Example 1.

[6] = tested on: Chenopodium album; assay: Farming soil treatment test; type: in vivo; conditions: soil surface spray prior to weed growth, 30 days
Method: as §5, §6, §3, §7

[7] = tested on: Digitaria ciliaris; assay: Farming soil treatment test; type: in vivo; conditions: soil surface spray prior to weed growth, 30 days
Method: as §5, §6, §3, §7

[8] = tested on: Amaranthus retroflexus; assay: Weed foliar treatment test; type: in vivo; conditions: foliar spray, 3 weeks
Method: (§8) Soil was filled into a 1/6000 are pot followed by seeding with Digitaria ciliaris, Chenopodium album and Amaranthus retroflexus, covering with soil, and cultivating in a glass greenhouse at an average atmospheric temperature of 25° C.
(§9) Wettable powder of Target Compound (I) shown in Table 1 prepared in compliance with the preparation examples were diluted with water to the prescribed amount of chemical and uniformly sprayed onto the weeds using 15 liters of sprayed water per are when Digitaria ciliaris had grown to the 1.0 to 2.0 leaf stage.
(§10) After treating for 3 weeks in a glass greenhouse at an average atmospheric temperature of 25° C., the herbicidal efficacy thereof was investigated.
as §7

[9] = tested on: Chenopodium album; assay: Weed foliar treatment test; type: in vivo; conditions: foliar spray, 3 weeks
Method: as §8, §9, §10, §7

[10] = tested on: Digitaria ciliaris; assay: Weed foliar treatment test; type: in vivo; conditions: foliar spray at 1.0 to 2.0 leaf stage of Digitaria ciliaris, 3 weeks
Method: as §8, §9, §10, §7

| SMILES | herbicidal efficacy (growth inhibition level) Echinochloa crus-galli ([1]; 1 g a.i./10 a) | herbicidal efficacy (growth inhibition level) Echinochloa crus-galli ([1]; 5 g a.i./10 a) | herbicidal efficacy (growth inhibition level) Monochoria vaginalis ([2]; 1 g a.i./10 a) | herbicidal efficacy (growth inhibition level) Monochoria vaginalis ([2]; 5 g a.i./10 a) | herbicidal efficacy (growth inhibition level) Scirpus juncoides ([3]; 1 g a.i./10 a) | herbicidal efficacy (growth inhibition level) Scirpus juncoides ([3]; 5 g a.i./10 a) | phytotoxicity (growth inhibition level) Rice plants ([4]; 1 g a.i./10 a) | phytotoxicity (growth inhibition level) Rice plants ([4]; 5 g a.i./10 a) | herbicidal efficacy (growth inhibition level) Amaranthus retroflexus ([5]; 5 g a.i./10 a) | herbicidal efficacy (growth inhibition level) Amaranthus retroflexus ([5]; 10 g a.i./10 a) | herbicidal efficacy (growth inhibition level) Chenopodium album ([6]; 5 g a.i./10 a) | herbicidal efficacy (growth inhibition level) Chenopodium album ([6]; 10 g a.i./10 a) | herbicidal efficacy (growth inhibition level) Digitaria ciliaris ([7]; 5 g a.i./10 a) | herbicidal efficacy (growth inhibition level) Digitaria ciliaris ([7]; 10 g a.i./10 a) | herbicidal efficacy (growth inhibition level) Amaranthus retroflexus ([8]; 5 g a.i./10 a) | herbicidal efficacy (growth inhibition level) Amaranthus retroflexus ([8]; 10 g a.i./10 a) | herbicidal efficacy (growth inhibition level) Chenopodium album ([9]; 5 g a.i./10 a) | herbicidal efficacy (growth inhibition level) Chenopodium album ([9]; 10 g a.i./10 a) | herbicidal efficacy (growth inhibition level) Digitaria ciliaris ([10]; 5 g a.i./10 a) | herbicidal efficacy (growth inhibition level) Digitaria ciliaris ([10]; 10 g a.i./10 a) | other results |
| --- | --- | --- | --- | --- | --- | --- | --- | --- | --- | --- | --- | --- | --- | --- | --- | --- | --- | --- | --- | --- | --- |
| C#CCNc1c(C#N)cnn1-c1nn2c(c1Cl)CCCC2 [4.85, 4.156] | 2 (2: 20% to less than 30%) | 3 (3: 30% to less than 40%) | 1 (1: 10% to less than 20%) | 3 (3: 30% to less than 40%) | 0 (0 (exponent): 0% to less than 10% (growth inhibition rate)) | 1 (1: 10% to less than 20%) | 2 (2: 20% to less than 30%) | 2 (2: 20% to less than 30%) | 3 (3: 30% to less than 40%) | 6 (6: 60% to less than 70%) | 4 (4: 40% to less than 50%) | 5 (5: 50% to less than 60%) | 3 (3: 30% to less than 40%) | 4 (4: 40% to less than 50%) | 4 (4: 40% to less than 50%) | 6 (6: 60% to less than 70%) | 5 (5: 50% to less than 60%) | 6 (6: 60% to less than 70%) | 3 (3: 30% to less than 40%) | 5 (5: 50% to less than 60%) | – |
| CC#CCNc1c(C#N)cnn1-c1nn2c(c1Cl)CCCC2 [4.131, 4.132] | 3 (3: 30% to less than 40%) | 4 (4: 40% to less than 50%) | 0 (0 (exponent): 0% to less than 10% (growth inhibition rate)) | 1 (1: 10% to less than 20%) | 1 (1: 10% to less than 20%) | 3 (3: 30% to less than 40%) | 1 (1: 10% to less than 20%) | 1 (1: 10% to less than 20%) | 4 (4: 40% to less than 50%) | 5 (5: 50% to less than 60%) | 3 (3: 30% to less than 40%) | 4 (4: 40% to less than 50%) | 3 (3: 30% to less than 40%) | 4 (4: 40% to less than 50%) | 4 (4: 40% to less than 50%) | 6 (6: 60% to less than 70%) | 4 (4: 40% to less than 50%) | 5 (5: 50% to less than 60%) | 3 (3: 30% to less than 40%) | 4 (4: 40% to less than 50%) | – |
| C#CCCNc1c(C#N)cnn1-c1nn2c(c1Cl)CCCC2 [Compound 1, 1-(3-chloro-4,5,6,7-tetrahydropyrazolo[1,5-a]pyridin-2-yl)-5-(but-3-ynylamino)pyrazole-4-carbonitrile] | 9 (9: 90% to less than 100%) | 10 (10: 100%) | 9 (9: 90% to less than 100%) | 10 (10: 100%) | 8 (8: 80% to less than 90%) | 10 (10: 100%) | 0 (0 (exponent): 0% to less than 10% (growth inhibition rate)) | 1 (1: 10% to less than 20%) | 10 (10: 100%) | 10 (10: 100%) | 10 (10: 100%) | 10 (10: 100%) | 10 (10: 100%) | 10 (10: 100%) | 10 (10: 100%) | 10 (10: 100%) | 10 (10: 100%) | 10 (10: 100%) | 10 (10: 100%) | 10 (10: 100%) | melting point: 130 to 131 °C |
| C#CCN(C)c1c(C#N)cnn1-c1nn2c(c1Cl)CCCC2 [Compound 4.73, 1-(3-chloro-4,5,6,7-tetrahydropyrazolo[1,5-a]pyridin-2-yl)-5-[methyl(prop-2-ynyl)amino]pyrazole-4-carbonitrile] | 2 (2: 20% to less than 30%) | 4 (4: 40% to less than 50%) | 3 (3: 30% to less than 40%) | 4 (4: 40% to less than 50%) | 0 (0 (exponent): 0% to less than 10% (growth inhibition rate)) | 1 (1: 10% to less than 20%) | 0 (0 (exponent): 0% to less than 10% (growth inhibition rate)) | 1 (1: 10% to less than 20%) | 1 (1: 10% to less than 20%) | 2 (2: 20% to less than 30%) | 1 (1: 10% to less than 20%) | 2 (2: 20% to less than 30%) | 0 (0 (exponent): 0% to less than 10% (growth inhibition rate)) | 1 (1: 10% to less than 20%) | 3 (3: 30% to less than 40%) | 3 (3: 30% to less than 40%) | 2 (2: 20% to less than 30%) | 3 (3: 30% to less than 40%) | 1 (1: 10% to less than 20%) | 2 (2: 20% to less than 30%) | – |
